# Data: patent publication US9695155B2, “Herbicidal substituted pyrimidinyloxy benzene compounds” (E. I. DU PONT DE NEMOURS AND COMPANY, priority 2013, dated 2017)
# What was measured:
# [1] = system: wild poinsettia; test: Test F preemergence; type: in vivo, Euphorbia heterophylla; conditions: 21 days, scale 0 to 100
# From the text: (§1) Seeds of plant species selected from bermudagrass (Cynodon dactylon), surinam grass (Brachiaria decumbens), large (Lg) crabgrass (Digitaria sanguinalis), crabgrass, naked (naked crabgrass, Digitaria nuda), foxtail, green (green foxtail, Setaria viridis), johnsongrass (Sorghum halepense), kochia (Kochia scoparia), morningglory (pitted morningglory, Ipomoea lacunosa), nutsedge, purple (purple nutsedge, Cyperus rotundus), ragweed (common ragweed, Ambrosia elatior), mustard, black (black mustard, Brassica nigra), guineagrass (Panicum maximum), dallisgrass (Paspalum dilatatum), barnyardgrass (Echinochloa crus-galli), sandbur (southern sandbur, Cenchrus echinatus), sowthistle (common sowthistle, Sonchus oleraceous), Italian ryegrass (Lolium multiflorum), signalgrass (broadleaf signalgrass, Brachiaria platyphylla), dayflower (Virginia (VA) dayflower, Commelina virginica), bluegrass (annual bluegrass, Poa annua), quackgrass (Elytrigia repens), mallow (common mallow, Malva sylvestris), buckwheat, wild (wild buckwheat, Polygonum convolvulus), leafy spurge (Euphorbia esula), chickweed (common chickweed, Stellaria media), wild poinsettia (Euphorbia heterophylla), and pigweed (Amaranthus retroflexus) were planted into a blend of loam soil and sand and treated preemergence with test chemicals formulated in a non-phytotoxic solvent mixture which included a surfactant.
# (§2) Treated plants and controls were maintained in a greenhouse for 21 days, after which time all species were compared to controls and visually evaluated. Plant response ratings, summarized in Table F, are based on a scale of 0 to 100 where 0 is no effect and 100 is complete control. A dash (-) response means no test result.
# [2] = system: wild radish; test: Test D postemergence; type: in vivo, Raphanus raphanistrum; conditions: Raphanus raphanistrum, post-emergence
# In short: (§3)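 Values are 0–100 visual control ratings (0 none, 100 complete) given 7–21 days after application. Soil for preemergence was silt loam; postemergence plants stood 2–18 cm tall.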
# [3] = system: speedwell; test: Test D postemergence; type: in vivo, Veronica persica; conditions: Veronica persica, post-emergence
# In short: as §3
# [4] = system: green foxtail; test: Test D preemergence; type: in vivo, Setaria viridis; conditions: Setaria viridis, pre-emergence
# In short: as §3
# [5] = system: mallow; test: Test F preemergence; type: in vivo, Malva sylvestris; conditions: 21 days, scale 0 to 100
# In short: (§4)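 Loam/sand mix; preemergence spray, non-phytotoxic solvent + surfactant; greenhouse 21 d; visual injury vs untreated, 0 (none)–100 (complete control).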
# [6] = system: canarygrass; test: Test D preemergence; type: in vivo, Phalaris minor; conditions: Phalaris minor, pre-emergence
# In short: as §3
# [7] = system: green foxtail; test: Test D postemergence; type: in vivo, Setaria viridis; conditions: Setaria viridis, post-emergence
# In short: as §3
# [8] = system: sandbur; test: Test F preemergence; type: in vivo, Cenchrus echinatus; conditions: 21 days, scale 0 to 100
# From the text: as §1, §2
# [9] = system: Italian ryegrass; test: Test D preemergence; type: in vivo, Lolium multiflorum; conditions: Lolium multiflorum, pre-emergence
# In short: as §3
# [10] = system: spring barley; test: Test D postemergence; type: in vivo, Hordeum vulgare; conditions: Hordeum vulgare, post-emergence, Postemergence, scale 0 to 100 (0 no effect, 100 complete control), read-out: Plant response rating, Barley, Spring
# In short: as §3
# [11] = system: winter barley; test: Test D postemergence; type: in vivo, Hordeum vulgare; conditions: Hordeum vulgare, post-emergence, Postemergence, scale 0 to 100 (0 no effect, 100 complete control), read-out: Plant response rating, Barley, Winter
# In short: as §3
# [12] = system: pigweed; test: Test F preemergence; type: in vivo, Amaranthus retroflexus; conditions: 21 days, scale 0 to 100
# In short: as §4
# [13] = system: chamomile; test: Test D preemergence; type: in vivo, Matricaria inodora; conditions: Tripleurospermum inodorum, pre-emergence
# In short: as §3
# [14] = system: galium; test: Test D preemergence; type: in vivo, Galium aparine; conditions: Galium, pre-emergence
# In short: as §3
# [15] = system: chickweed; test: Test D preemergence; type: in vivo, Stellaria media; conditions: Stellaria media, pre-emergence
# In short: as §3
# [16] = system: kochia; test: Test D preemergence; type: in vivo, Kochia scoparia; conditions: Bassia scoparia, pre-emergence
# In short: as §3
compound,measurement,setting,value
"N#Cc1cccc(Oc2ncc(Cl)cn2)c1-n1cc(OCC(F)(F)F)cn1 [Compound 274, 3-[(5-chloro-2-pyrimidinyl)oxy]-2-[4-(2,2,2-trifluoroethoxy)-1H-pyrazol-1-yl]benzonitrile]","Plant response rating, Poinsettia, Wild",[1]; 16 g ai/ha,5
same,"Plant response rating, Poinsettia, Wild",[1]; 31 g ai/ha,10
same,"Plant response rating, Poinsettia, Wild",[1]; 62 g ai/ha,70
same,"Plant response rating, Poinsettia, Wild",[1]; 125 g ai/ha,95
same,"Plant response rating, Poinsettia, Wild",[1]; 250 g ai/ha,100
same,pest or weed control at 16 g/ha,"[2]; 16 g ai/ha, scale 0-100, read-out: Plant response rating, Radish, Wild",70%
same,pest or weed control at 31 g/ha,"[2]; 31 g ai/ha, scale 0 to 100 (0 no effect, 100 complete control), read-out: Plant response rating, Radish, Wild",70%
same,pest or weed control at 62 g/ha,"[2]; 62 g ai/ha, scale 0 to 100 (0 no effect, 100 complete control), read-out: Plant response rating, Radish, Wild",70%
same,pest or weed control at 125 g/ha,"[2]; 125 g ai/ha, scale 0 to 100 (0 no effect, 100 complete control), read-out: Plant response rating, Radish, Wild",90%
same,pest or weed control at 16 g/ha,"[3]; 16 g ai/ha, scale 0-100, read-out: Plant response rating, Speedwell",75%
same,pest or weed control at 31 g/ha,"[3]; 31 g ai/ha, scale 0 to 100 (0 no effect, 100 complete control), read-out: Plant response rating, Speedwell",100%
same,pest or weed control at 62 g/ha,"[3]; 62 g ai/ha, scale 0 to 100 (0 no effect, 100 complete control), read-out: Plant response rating, Speedwell",85%
same,pest or weed control at 125 g/ha,"[3]; 125 g ai/ha, scale 0 to 100 (0 no effect, 100 complete control), read-out: Plant response rating, Speedwell",100%
same,pest or weed control at 16 g/ha,"[4]; 16 g ai/ha, scale 0 (no effect) to 100 (complete control), read-out: Plant response rating, Foxtail, Green",15%
same,pest or weed control at 31 g/ha,"[4]; 31 g ai/ha, scale 0-100, read-out: Plant response rating, Foxtail, Green",75%
same,pest or weed control at 62 g/ha,"[4]; 62 g ai/ha, scale 0-100, read-out: Plant response rating, Foxtail, Green",100%
same,pest or weed control at 125 g/ha,"[4]; 125 g ai/ha, scale 0-100, read-out: Plant response rating, Foxtail, Green",100%
same,"Plant response rating, Mallow",[5]; 16 g ai/ha,98
same,"Plant response rating, Mallow",[5]; 31 g ai/ha,98
same,"Plant response rating, Mallow",[5]; 62 g ai/ha,98
same,"Plant response rating, Mallow",[5]; 125 g ai/ha,100
same,"Plant response rating, Mallow",[5]; 250 g ai/ha,100
same,pest or weed control at 16 g/ha,"[6]; 16 g ai/ha, scale 0 (no effect) to 100 (complete control), read-out: Plant response rating, Canarygrass",20%
same,pest or weed control at 31 g/ha,"[6]; 31 g ai/ha, scale 0-100, read-out: Plant response rating, Canarygrass",20%
same,pest or weed control at 62 g/ha,"[6]; 62 g ai/ha, scale 0-100, read-out: Plant response rating, Canarygrass",60%
same,pest or weed control at 125 g/ha,"[6]; 125 g ai/ha, scale 0-100, read-out: Plant response rating, Canarygrass",85%
same,pest or weed control at 16 g/ha,"[7]; 16 g ai/ha, scale 0-100, read-out: Plant response rating, Foxtail, Green",15%
same,pest or weed control at 31 g/ha,"[7]; 31 g ai/ha, scale 0 to 100 (0 no effect, 100 complete control), read-out: Plant response rating, Foxtail, Green",20%
same,pest or weed control at 62 g/ha,"[7]; 62 g ai/ha, scale 0 to 100 (0 no effect, 100 complete control), read-out: Plant response rating, Foxtail, Green",25%
same,pest or weed control at 125 g/ha,"[7]; 125 g ai/ha, scale 0 to 100 (0 no effect, 100 complete control), read-out: Plant response rating, Foxtail, Green",45%
same,"Plant response rating, Sandbur",[8]; 16 g ai/ha,5
same,"Plant response rating, Sandbur",[8]; 31 g ai/ha,20
same,"Plant response rating, Sandbur",[8]; 62 g ai/ha,70
same,"Plant response rating, Sandbur",[8]; 125 g ai/ha,95
same,"Plant response rating, Sandbur",[8]; 250 g ai/ha,100
same,pest or weed control at 16 g/ha,"[9]; 16 g ai/ha, scale 0 (no effect) to 100 (complete control), read-out: Plant response rating, Ryegrass, Italian",0%
same,pest or weed control at 31 g/ha,"[9]; 31 g ai/ha, scale 0 (no effect) to 100 (complete control), read-out: Plant response rating, Ryegrass, Italian",0%
same,pest or weed control at 125 g/ha,"[9]; 125 g ai/ha, scale 0-100, read-out: Plant response rating, Ryegrass, Italian",70%
same,plant injury at 16 g/ha,[10]; 16 g ai/ha,20%
same,plant injury at 31 g/ha,[10]; 31 g ai/ha,25%
same,plant injury at 62 g/ha,[10]; 62 g ai/ha,30%
same,plant injury at 125 g/ha,[10]; 125 g ai/ha,35%
same,plant injury at 16 g/ha,[11]; 16 g ai/ha,10%
same,plant injury at 31 g/ha,[11]; 31 g ai/ha,20%
same,plant injury at 62 g/ha,[11]; 62 g ai/ha,25%
same,plant injury at 125 g/ha,[11]; 125 g ai/ha,30%
same,"Plant response rating, Pigweed",[12]; 16 g ai/ha,100
same,"Plant response rating, Pigweed",[12]; 31 g ai/ha,100
same,"Plant response rating, Pigweed",[12]; 62 g ai/ha,100
same,"Plant response rating, Pigweed",[12]; 125 g ai/ha,100
same,"Plant response rating, Pigweed",[12]; 250 g ai/ha,100
same,pest or weed control at 16 g/ha,"[13]; 16 g ai/ha, scale 0 (no effect) to 100 (complete control), read-out: Plant response rating, Chamomile",5%
same,pest or weed control at 62 g/ha,"[13]; 62 g ai/ha, scale 0-100, read-out: Plant response rating, Chamomile",35%
same,pest or weed control at 125 g/ha,"[13]; 125 g ai/ha, scale 0-100, read-out: Plant response rating, Chamomile",65%
same,pest or weed control at 16 g/ha,"[14]; 16 g ai/ha, scale 0 (no effect) to 100 (complete control), read-out: Plant response rating, Galium",0%
same,pest or weed control at 31 g/ha,"[14]; 31 g ai/ha, scale 0-100, read-out: Plant response rating, Galium",60%
same,pest or weed control at 62 g/ha,"[14]; 62 g ai/ha, scale 0-100, read-out: Plant response rating, Galium",100%
same,pest or weed control at 125 g/ha,"[14]; 125 g ai/ha, scale 0-100, read-out: Plant response rating, Galium",100%
same,pest or weed control at 16 g/ha,"[15]; 16 g ai/ha, scale 0 (no effect) to 100 (complete control), read-out: Plant response rating, Chickweed",60%
same,pest or weed control at 31 g/ha,"[15]; 31 g ai/ha, scale 0-100, read-out: Plant response rating, Chickweed",85%
same,pest or weed control at 62 g/ha,"[15]; 62 g ai/ha, scale 0-100, read-out: Plant response rating, Chickweed",100%
same,pest or weed control at 125 g/ha,"[15]; 125 g ai/ha, scale 0-100, read-out: Plant response rating, Chickweed",100%
same,pest or weed control at 16 g/ha,"[16]; 16 g ai/ha, scale 0 (no effect) to 100 (complete control), read-out: Plant response rating, Kochia",0%
same,pest or weed control at 31 g/ha,"[16]; 31 g ai/ha, scale 0-100, read-out: Plant response rating, Kochia",70%
same,pest or weed control at 62 g/ha,"[16]; 62 g ai/ha, scale 0-100, read-out: Plant response rating, Kochia",65%
same,pest or weed control at 125 g/ha,"[16]; 125 g ai/ha, scale 0-100, read-out: Plant response rating, Kochia",100%
